Measured values taken from US20170260285A1, “METHODS FOR TREATING CANCER” (UNIVERSITY OF IOWA RESEARCH FOUNDATION, priority 2014, published 2017).
“Also recorded” adds a separate entry of the source. Residues, ends and D or L forms follow the SMILES beside them. *: point of attachment. Cbz = O=C(OCc1ccccc1)*; CH2F = FC*

What was measured:
Cal-27 HNSCC cells [1] = assay: IL-1α release by ELISA in Cal-27 cells; assay type: cell-based, human; conditions: for erlotinib-induced IL-1α release: agent 1 h then erlotinib 5 μM 48 h; for baseline IL-1α levels: agent 1 h then DMSO 48 h
Method: (§1) Erlotinib (ERL; Tarceva) and anakinra (ANA; Kineret) were obtained from the inpatient pharmacy at the University of Iowa Hospitals and Clinics. Drugs were added to cells at final concentrations of 5 μM ERL and 10 ng/mL or 50 ng/mL ANA. Human IgG and […] (DMSO) were used as controls and were obtained from Sigma Aldrich. Human IL-1α, IL-1β, and IL-18Rα neutralizing antibodies were obtained from R&D Systems and were used at a concentration of 0.5 μg/mL. Recombinant human IL-1α was obtained from Life Technologies and administered at a concentration of 1 ng/mL. Ac-Y-VAD-cho, a caspase-1 inhibitor (CalBioChem), was suspended in DMSO and added at a concentration of […], a pan-caspase inhibitor (Promega) was diluted in DMSO and added at a concentration of 20 μM. TLR agonists were used at the following concentrations: Pam3CSK4 (200ng/mL), FSL-1 (100 ng/mL), Poly I:C (20 μg/mL), LPS (200 ng/mL), Flagellin (200 ng/mL), Gardiquimod (1 μg/mL), CL075 (1 μg/mL), and E. coli DNA (1 μg/mL). All TLR agonists were obtained from InvivoGen. The required volume of each drug was added directly to complete cell culture media on cells to achieve the indicated final concentrations.
(§2) Levels of IL-6, IL-1α and IL-1β of treated cells were determined by ELISA. The culture media of the treated cells were harvested and each cytokine was detected according to the manufacturer's protocol using the Human Quantikine ELISA Kits (R&D Systems, Minneapolis, Minn.).
(§3) Erlotinib (ERL; Tarceva), anakinra (ANA; Kineret) and N-acetyl cysteine (NAC; Acetadote) were obtained from the inpatient pharmacy at the University of Iowa Hospitals and Clinics. Drugs were added to cells at final concentrations of 5 μM ERL, 10 ng/mL or 50 ng/mL ANA and 20 mM NAC. Human IgG and […] (DMSO) were used as controls and were obtained from Sigma Aldrich. Pegylated catalase (CAT; Sigma Aldrich) was used at a final concentration of 100 U/mL. Human IL-1α, IL-1β, and IL-18Ra neutralizing antibodies were obtained from R&D Systems and were used at a concentration of 0.5 μg/mL. Recombinant human IL-1α was obtained from Life Technologies and administered at a concentration of 1 ng/mL. Ac-Y-VAD-cho (CalBioChem) was suspended in DMSO and used at 5 μM. Z-VAD-fmk (Promega) was diluted in DMSO and used at 20 μM. TLR agonists were used at the following concentrations: Pam3CSK4 (200 ng/mL), FSL-1 (100 ng/mL), Poly I:C (20 μg/mL), LPS (200 ng/mL), Flagellin (200 ng/mL), Gardiquimod (1 μg/mL), CL075 (1 μg/mL), and E. coli DNA (1 μg/mL). All TLR agonists were obtained from InvivoGen. The required volume of each drug was added directly to complete cell culture media on cells to achieve the indicated final concentrations.
(§4) Levels of IL-6, IL-1α and IL-1β of treated cells were determined by ELISA. The culture media of the treated cells were harvested and each cytokine was detected according to the manufacturer's protocol using Human Quantikine ELISA Kits (R&D Systems, Minneapolis, Minn.).

SQ20B HNSCC cells [2] = assay: IL-1α release by ELISA in SQ20B cells; assay type: cell-based, human; conditions: for erlotinib-induced IL-1α release: agent 1 h then erlotinib 5 μM 48 h; for baseline IL-1α levels: agent 1 h then DMSO 48 h
Method: as §1, §2, §3, §4

Cal-27 HNSCC cells [3] = assay: IL-6 secretion by ELISA in Cal-27 cells; assay type: cell-based, human; conditions: for erlotinib-induced IL-6: agent pre-treatment then erlotinib 5 μM 48 h; for baseline IL-6 (absence of erlotinib): agent 2 h (1 h for caspase inhibitors, NAC, CAT) then DMSO 48 h
Text: (§5) Cal-27 and FaDu human head and neck squamous carcinoma (HNSCC) cells were obtained from the American Type Culture Collection (ATCC, Manassas, Va.). SQ20B HNSCC cells (16) were a gift from Dr. Anjali Gupta (Department of Radiation Oncology, The University of Iowa). All HNSCC cell lines are EGFR positive and are sensitive to EGFR inhibitors. All cell lines were authenticated by the ATCC for viability (before freezing and after thawing), growth, morphology and isoenzymology. Cells were stored according to the supplier's instructions and used over a course of no more than 3 months after resuscitation of frozen aliquots. Cultures were maintained in 5% CO2 and air humidified in a 37° C. incubator.
as §1, §2
as §5, with “(20)” for “(16)”
as §3, with “The required volume of each drug was added directly to complete cell culture media on cells to achieve the indicated final concentrations.” left out

SQ20B HNSCC cells [4] = assay: IL-6 secretion by ELISA in SQ20B cells; assay type: cell-based, human; conditions: for erlotinib-induced IL-6: agent pre-treatment then erlotinib 5 μM 48 h; for baseline IL-6 (absence of erlotinib): agent 2 h (1 h for caspase inhibitors, NAC, CAT) then DMSO 48 h
Text: as §5, §1, §2
as §5, with “(20)” for “(16)”
as §3, with “The required volume of each drug was added directly to complete cell culture media on cells to achieve the indicated final concentrations.” left out

SQ20B and Cal27 cells = assay type: cell-based
Method: To determine whether cell death is responsible for IL-1α release, we used Z-VAD-fmk, a pan-caspase inhibitor, to prevent cell death. We also tested Ac-Y-VAD-cho, caspase-1 inhibitor, to assess inflammasome involvement. After testing various combinations of these inhibitors, we found an optimal concentration of 20 μM Z-VAD and 5μM Y-VAD. […] To confirm that the pan-caspase inhibitor was effectively blocking cell death, we performed a clonogenic assay with erlotinib- and Z-VAD-treated cells in SQ20B cells.

SQ20B cells = assay: Clonogenic survival assay; assay type: cell-based, human; conditions: Z-VAD 20 μM with erlotinib
Method: Clonogenic survival was determined as previously described (17). Individual assays were performed with multiple dilutions with at least four cloning dishes per data point, repeated in at least 3 separate experiments. Tumor cell implantation: Female 4-5 week old athymic-nu/nu nude mice were purchased from Harlan Laboratories (Indianapolis, IN). Mice were housed in a pathogen-free barrier room in the Animal Care Facility at the University of Iowa and handled using aseptic procedures. All procedures were approved by the IACUC committee of the University of Iowa and conformed to the guidelines established by the NIH. Mice were allowed at least 3 days to acclimate prior to beginning experimentation, and food and water were made freely available. Tumor cells (shCON or shMyD88) were inoculated into nude mice by subcutaneous injection of 0.1 mL aliquots of saline containing 2×10^6 FaDu cells into the right flank using 26-gauge needles.
Clonogenic survival was determined as previously described (22). Individual assays were performed with multiple dilutions with at least four cloning dishes per data point, repeated in at least 3 separate experiments.

HNSCC tumor cell lines = conditions: previous studies (ref. 10); cited from earlier work
[5] = listed as pan-caspase inhibitor

CC(=O)N[C@@H](CS)C(=O)O [NAC, N-acetyl cysteine]
erlotinib-induced IL-1α release (Cal-27 HNSCC cells [1]): significantly suppressed | erlotinib-induced IL-1α release (SQ20B HNSCC cells [2]): significantly suppressed | erlotinib-induced IL-6 (Cal-27 HNSCC cells [3]): significantly suppressed | erlotinib-induced IL-6 (SQ20B HNSCC cells [4]): significantly suppressed

COC(=O)C[C@H](NC(=O)[C@H](C)NC(=O)[C@@H](NC(=O)OCc1ccccc1)C(C)C)C(=O)CF [Z-VAD-fmk] (Cbz-Val-Ala-Asp(OMe)-CH2F)
highest dose that did not result in toxicity (optimal concentration) (SQ20B and Cal27 cells): 20 µM | baseline IL-1α levels (Cal-27 HNSCC cells [1]): significantly reduced | baseline IL-1α levels (Cal-27 HNSCC cells [1]; listed as Z-VAD): significantly reduce | erlotinib-induced IL-1α release (Cal-27 HNSCC cells [1]): significantly reduced | erlotinib-induced IL-1α release (Cal-27 HNSCC cells [1]; listed as Z-VAD): significantly reduce | erlotinib-induced IL-1α release (Cal-27 HNSCC cells [1]; listed as ZVAD): blocked | erlotinib-induced IL-1α release (Cal-27 HNSCC cells [1]; [5]): blocked | baseline IL-1α levels (SQ20B HNSCC cells [2]): significantly reduced | baseline IL-1α levels (SQ20B HNSCC cells [2]; listed as Z-VAD): significantly reduce | erlotinib-induced IL-1α release (SQ20B HNSCC cells [2]): significantly reduced | erlotinib-induced IL-1α release (SQ20B HNSCC cells [2]; listed as Z-VAD): significantly reduce | erlotinib-induced IL-1α release (SQ20B HNSCC cells [2]; listed as ZVAD): blocked | erlotinib-induced IL-1α release (SQ20B HNSCC cells [2]; [5]): blocked | erlotinib-induced cell death (SQ20B cells): blocked | erlotinib-induced cell death (SQ20B cells; listed as Z-VAD): significantly blocked | erlotinib-induced cell death (SQ20B cells; listed as ZVAD): blocked | erlotinib-induced cell death (SQ20B cells; [5]): blocked

CS(=O)(=O)CCNCc1ccc(-c2ccc3ncnc(Nc4ccc(OCc5cccc(F)c5)c(Cl)c4)c3c2)o1 [lapatinib]
IL-6 expression/secretion in HNSCC cell lines treated with EGFRIs (HNSCC tumor cell lines): significant upregulation

Ac-Y-VAD-cho
highest dose that did not result in toxicity (optimal concentration) (SQ20B and Cal27 cells): 5 µM | baseline IL-1α levels (Cal-27 HNSCC cells [1]): not observed | erlotinib-induced IL-1α release (Cal-27 HNSCC cells [1]): did not see a decrease; also recorded: not observed | erlotinib-induced IL-1α release (SQ20B HNSCC cells [2]): did not see a decrease; also recorded: not observed | erlotinib-induced IL-6 (Cal-27 HNSCC cells [3]): did not affect | erlotinib-induced IL-6 (SQ20B HNSCC cells [4]): did not affect

anakinra
baseline IL-6 (absence of erlotinib) (Cal-27 HNSCC cells [3]): significantly reduced | erlotinib-induced IL-6 (Cal-27 HNSCC cells [3]): significantly reduced; also recorded: effectively blocked | erlotinib-induced IL-6 (Cal-27 HNSCC cells [3]; listed as Anakinra): effectively blocked | baseline IL-6 (absence of erlotinib) (SQ20B HNSCC cells [4]): significantly reduced | erlotinib-induced IL-6 (SQ20B HNSCC cells [4]): significantly reduced; also recorded: effectively blocked | erlotinib-induced IL-6 (SQ20B HNSCC cells [4]; listed as Anakinra): effectively blocked

panitumumab
IL-6 expression/secretion in HNSCC cell lines treated with EGFRIs (HNSCC tumor cell lines): significant upregulation

B1: Exogenous IL-1α: Recombinant human IL-1α from Life Technologies, 1 ng/mL (protein, UniProt P01583 113-271, looked up)
Interleukin-1 alpha: SAPFSFLSNVKYNFMRIIKYEFILNDALNQSIIRANDQYLTAAALHNLDEAVKFDMGAYKSSKDDAKITVILRISKTQLYVTAQDEDQPVLLKEMPEIPKTITGSETNLLFFWETHGTKNYFTSVAHPNLFIATKQDYWVCLAGGPPSITDFQILENQA
baseline IL-6 (absence of erlotinib) (Cal-27 HNSCC cells [3]): increased | erlotinib-induced IL-6 (Cal-27 HNSCC cells [3]): increased | baseline IL-6 (absence of erlotinib) (SQ20B HNSCC cells [4]): increased | erlotinib-induced IL-6 (SQ20B HNSCC cells [4]): increased

B2: CAT: Pegylated catalase (Sigma Aldrich), antioxidant, 100 U/mL (protein, UniProt P00432 2-527, looked up)
Catalase: ADNRDPASDQMKHWKEQRAAQKPDVLTTGGGNPVGDKLNSLTVGPRGPLLVQDVVFTDEMAHFDRERIPERVVHAKGAGAFGYFEVTHDITRYSKAKVFEHIGKRTPIAVRFSTVAGESGSADTVRDPRGFAVKFYTEDGNWDLVGNNTPIFFIRDALLFPSFIHSQKRNPQTHLKDPDMVWDFWSLRPESLHQVSFLFSDRGIPDGHRHMNGYGSHTFKLVNANGEAVYCKFHYKTDQGIKNLSVEDAARLAHEDPDYGLRDLFNAIATGNYPSWTLYIQVMTFSEAEIFPFNPFDLTKVWPHGDYPLIPVGKLVLNRNPVNYFAEVEQLAFDPSNMPPGIEPSPDKMLQGRLFAYPDTHRHRLGPNYLQIPVNCPYRARVANYQRDGPMCMMDNQGGAPNYYPNSFSAPEHQPSALEHRTHFSGDVQRFNSANDDNVTQVRTFYLKVLNEEQRKRLCENIAGHLKDAQLFIQKKAVKNFSDVHPEYGSRIQALLDKYNEEKPKNAVHTYVQHGSHLSAREKANL
modifications: PEG
notes: Pegylated catalase (Sigma Aldrich), antioxidant, 100 U/mL
erlotinib-induced IL-1α release (Cal-27 HNSCC cells [1]): significantly suppressed | erlotinib-induced IL-1α release (SQ20B HNSCC cells [2]): significantly suppressed | erlotinib-induced IL-6 (Cal-27 HNSCC cells [3]): significantly suppressed | erlotinib-induced IL-6 (SQ20B HNSCC cells [4]): significantly suppressed
